From patent US7732431B2, “Pharmaceutical compositions comprising trimegestone” (aventis pharma SA, priority 1999, dated 2010)

Experiment: Storage stability and light sensitivity of trimegestone in powder form
Assay type: physicochemical
Description: Trimegestone is thus a molecule which is in itself stable. However, stability problems can appear during the preparation of tablets or if conventional pharmaceutical compositions comprising trimegestone are stored at 40° C. (dry or damp medium) or under more severe conditions. In particular, the appearance of (20S)-17alpha-methyl-7beta-(1-hydroxy-2-oxo-propyl)-oestra-4,9-dien-3-one, the 21R epimer of trimegestone, or even of oxopromegestone is observed under these conditions.

Sensitivity to light: very low sensitivity to light
Stability after storage (3 months at 70° C. under an inert gas): stable
Stability after storage (6 months in a glass pill box at 50° C.): stable
SMILES: C[C@H](O)C(=O)[C@@]1(C)CC[C@H]2[C@@H]3CCC4=CC(=O)CCC4=C3CC[C@@]21C [Trimegestone, (21S)-17alpha-methyl-17beta-(2-hydroxy-1-oxo-propyl)-oestra-4,9-dien-3-one]
